Results on 2 molecules are retold here after patent publication US20250325655A1, “VACCINE ADJUVANT, AND PREPARATION METHOD THEREFOR AND USE THEREOF” (CHENGDU MAXVAX BIOTECHNOLOGY LLC, priority 2021, published 2025).

Series [1] is described as follows: Toxicology studies of the present product. The following applies: poly (I:C) adsorbed onto the mixed liposomes. The source says:
In order to maintain stability of physical properties of products, the mixed liposomes containing the cationic liposomes and the neutral liposomes (consisting of […]) were chosen in the present disclosure to adsorb poly (I:C). Poly (I:C) adsorbed by the intramuscular administered mixed liposomes could be passively or actively delivered to antigen presenting cells (APCs), to limit its interaction with non-phagocytic cells, and regulate systemic secretion of cytokines generated thereby.

For series [2] the following is noted: cancer patients, QS-21 dose 100~200 μg, cited from earlier work.

Take “polyinosinic: polycytidylic acid [poly (I:C)]”: the safety result in series [1] is “can effectively improve its safety”.

Turning to `CCC(C)C(CC(O)CC(=O)O[C@@H]1[C@H](O)[C@H](C)O[C@H](OC(=O)[C@@H]2CC(C)(C)C[C@@H]3C4=CCC5[C@@]6(C)CC[C@H](O[C@@H]7O[C@H](C(=O)O)[C@@H](O)[C@H](O[C@H]8OC[C@@H](O)[C@H](O)[C@H]8O)[C@H]7O[C@@H]7O[C@H](CO)[C@H](O)[C@H](O)[C@H]7O)[C@@](C)(C=O)[C@@H]6CC[C@@]5(C)[C@]4(C)C[C@@H](O)C32)[C@H]1O[C@@H]1O[C@@H](C)[C@H](O[C@H]2OC[C@@H](O)[C@H](O[C@H]3OC[C@](O)(CO)[C@H]3O)[C@H]2O)[C@@H](O)[C@H]1O)OC(=O)CC(O)CC(O[C@@H]1O[C@@H](CO)[C@H](O)[C@H]1O)C(C)CC` (stereo partly drawn) [QS-21, Quillaja saponaria saponin 21], the “erythema and induration at the injection site” value in series [2] (most patients) is given as 2-10 cm. Further, the dose-limiting toxicity result in series [2] is “No dose-limiting toxicity”.
